# Data reported in publication PMC6430017, “Structural and chemical insights into the covalent-allosteric inhibition of the protein kinase Akt” (Chemical Science, 2019).
# Tests used:
# Assay in all cases: SelectScreen Z'LYTE kinase profiling
# Assay type in all cases: biochemical
# Conditions in all cases: ATP at apparent KM
# [1] = target: AMPK A2/B1/G1 (Homo sapiens, UniProt P54646)
# Description: (§1) protein kinases at a compound concentration of 1 µM. Measurements were performed in duplicates
# (§2) and at the particular apparent ATP KM of each individual kinase employing the activity based Z’LYTE®
# (§3) kinase assay of the SelectScreen® Kinase Profiling Services (ThermoFisher Scientific).
# (§4) kinases at a compound concentration of 1 µM. Measurements were performed in duplicates and at
# (§5) the particular apparent ATP KM of each individual kinase employing the activity based Z’LYTE® kinase
# (§6) assay of the SelectScreen® Kinase Profiling Services (ThermoFisher Scientific).
# [2] = target: T1, SGK (SGK1) (Homo sapiens, UniProt O00141)
# T1 sequence (O00141 1-431): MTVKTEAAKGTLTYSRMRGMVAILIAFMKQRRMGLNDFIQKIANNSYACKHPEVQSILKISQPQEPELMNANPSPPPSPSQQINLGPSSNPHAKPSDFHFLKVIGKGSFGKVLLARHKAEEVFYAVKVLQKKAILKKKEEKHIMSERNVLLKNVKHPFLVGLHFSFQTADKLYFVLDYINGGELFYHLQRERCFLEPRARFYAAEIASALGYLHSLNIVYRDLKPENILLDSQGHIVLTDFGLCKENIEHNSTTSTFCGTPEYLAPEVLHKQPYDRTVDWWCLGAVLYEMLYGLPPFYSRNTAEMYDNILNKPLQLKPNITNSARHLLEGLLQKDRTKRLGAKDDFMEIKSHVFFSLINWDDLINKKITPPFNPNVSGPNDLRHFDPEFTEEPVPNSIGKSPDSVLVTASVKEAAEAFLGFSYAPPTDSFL
# Description: as §1, §2, §3, §4, §5, §6
# [3] = target: FRAP1 (mTOR) (Homo sapiens, UniProt P42345)
# Description: as §1, §2, §3, §4, §5, §6
# [4] = target: PRKCH (PKC eta) (Homo sapiens, UniProt P24723)
# PRKCH (PKC eta), sequence (P24723 whole entry): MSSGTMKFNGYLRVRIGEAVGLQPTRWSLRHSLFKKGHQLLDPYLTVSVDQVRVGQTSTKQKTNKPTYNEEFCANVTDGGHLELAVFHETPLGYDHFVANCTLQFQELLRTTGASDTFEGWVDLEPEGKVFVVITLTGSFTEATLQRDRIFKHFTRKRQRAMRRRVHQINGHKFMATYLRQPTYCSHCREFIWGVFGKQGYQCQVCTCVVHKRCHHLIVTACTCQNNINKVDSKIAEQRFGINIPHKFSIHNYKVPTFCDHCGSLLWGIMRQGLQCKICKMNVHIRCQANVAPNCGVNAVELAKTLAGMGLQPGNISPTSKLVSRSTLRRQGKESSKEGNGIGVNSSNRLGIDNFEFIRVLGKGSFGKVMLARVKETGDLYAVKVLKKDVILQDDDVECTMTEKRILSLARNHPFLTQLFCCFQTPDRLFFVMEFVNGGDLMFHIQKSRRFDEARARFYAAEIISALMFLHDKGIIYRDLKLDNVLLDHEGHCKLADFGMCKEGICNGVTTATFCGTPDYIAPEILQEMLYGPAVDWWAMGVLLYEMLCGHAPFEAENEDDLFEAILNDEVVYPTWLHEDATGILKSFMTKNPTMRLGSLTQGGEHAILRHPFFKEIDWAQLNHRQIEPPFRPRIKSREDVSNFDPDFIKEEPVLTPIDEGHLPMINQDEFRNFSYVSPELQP
# Description: as §1, §2, §3, §4, §5, §6
# [5] = target: PRKCQ (PKC theta) (Homo sapiens, UniProt Q04759)
# PRKCQ (PKC theta), sequence (Q04759 whole entry): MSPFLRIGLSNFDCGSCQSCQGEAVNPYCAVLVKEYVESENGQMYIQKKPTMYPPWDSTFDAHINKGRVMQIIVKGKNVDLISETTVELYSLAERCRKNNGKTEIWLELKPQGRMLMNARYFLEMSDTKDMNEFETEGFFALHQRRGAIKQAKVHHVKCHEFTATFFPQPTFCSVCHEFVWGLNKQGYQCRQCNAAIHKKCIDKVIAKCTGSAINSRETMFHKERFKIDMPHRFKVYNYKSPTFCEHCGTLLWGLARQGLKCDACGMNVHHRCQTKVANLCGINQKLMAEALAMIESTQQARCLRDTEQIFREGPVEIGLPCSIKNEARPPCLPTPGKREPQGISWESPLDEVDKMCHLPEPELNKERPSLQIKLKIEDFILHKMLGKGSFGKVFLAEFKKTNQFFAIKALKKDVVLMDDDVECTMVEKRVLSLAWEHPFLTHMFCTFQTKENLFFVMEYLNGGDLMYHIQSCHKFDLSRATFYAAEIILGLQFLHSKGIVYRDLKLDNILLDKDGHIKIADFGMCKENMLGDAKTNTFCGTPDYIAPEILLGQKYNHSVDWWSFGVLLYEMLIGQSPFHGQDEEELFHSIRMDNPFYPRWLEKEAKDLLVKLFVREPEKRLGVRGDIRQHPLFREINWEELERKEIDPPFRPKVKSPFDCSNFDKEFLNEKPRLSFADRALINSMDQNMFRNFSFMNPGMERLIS
# Description: as §1, §2, §3, §4, §5, §6
# [6] = target: T2, TBK1 (Homo sapiens, UniProt Q9UHD2)
# T2 sequence (Q9UHD2 1-729): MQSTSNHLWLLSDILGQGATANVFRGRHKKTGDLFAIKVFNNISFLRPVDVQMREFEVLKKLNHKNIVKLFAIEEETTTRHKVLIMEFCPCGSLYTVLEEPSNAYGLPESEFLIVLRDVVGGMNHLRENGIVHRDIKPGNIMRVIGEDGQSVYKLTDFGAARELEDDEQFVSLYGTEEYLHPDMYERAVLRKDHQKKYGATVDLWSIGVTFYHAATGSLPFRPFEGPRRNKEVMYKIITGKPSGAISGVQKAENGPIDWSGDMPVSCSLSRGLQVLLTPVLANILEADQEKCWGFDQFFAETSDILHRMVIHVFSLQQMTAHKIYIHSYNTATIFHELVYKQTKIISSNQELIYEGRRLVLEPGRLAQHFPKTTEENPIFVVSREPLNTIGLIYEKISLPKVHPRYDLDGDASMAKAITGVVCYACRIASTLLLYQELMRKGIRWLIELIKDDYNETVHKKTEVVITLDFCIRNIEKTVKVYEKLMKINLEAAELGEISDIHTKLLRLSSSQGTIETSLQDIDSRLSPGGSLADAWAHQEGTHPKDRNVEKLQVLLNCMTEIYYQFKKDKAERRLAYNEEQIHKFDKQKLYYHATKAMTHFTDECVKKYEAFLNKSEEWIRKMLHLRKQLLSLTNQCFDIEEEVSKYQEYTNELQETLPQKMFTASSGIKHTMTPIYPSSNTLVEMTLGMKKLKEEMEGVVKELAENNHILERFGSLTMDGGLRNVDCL
# [7] = target: T3, PRKD2 (PKD2) (Homo sapiens, UniProt Q9BZL6)
# T3 sequence (Q9BZL6 1-878): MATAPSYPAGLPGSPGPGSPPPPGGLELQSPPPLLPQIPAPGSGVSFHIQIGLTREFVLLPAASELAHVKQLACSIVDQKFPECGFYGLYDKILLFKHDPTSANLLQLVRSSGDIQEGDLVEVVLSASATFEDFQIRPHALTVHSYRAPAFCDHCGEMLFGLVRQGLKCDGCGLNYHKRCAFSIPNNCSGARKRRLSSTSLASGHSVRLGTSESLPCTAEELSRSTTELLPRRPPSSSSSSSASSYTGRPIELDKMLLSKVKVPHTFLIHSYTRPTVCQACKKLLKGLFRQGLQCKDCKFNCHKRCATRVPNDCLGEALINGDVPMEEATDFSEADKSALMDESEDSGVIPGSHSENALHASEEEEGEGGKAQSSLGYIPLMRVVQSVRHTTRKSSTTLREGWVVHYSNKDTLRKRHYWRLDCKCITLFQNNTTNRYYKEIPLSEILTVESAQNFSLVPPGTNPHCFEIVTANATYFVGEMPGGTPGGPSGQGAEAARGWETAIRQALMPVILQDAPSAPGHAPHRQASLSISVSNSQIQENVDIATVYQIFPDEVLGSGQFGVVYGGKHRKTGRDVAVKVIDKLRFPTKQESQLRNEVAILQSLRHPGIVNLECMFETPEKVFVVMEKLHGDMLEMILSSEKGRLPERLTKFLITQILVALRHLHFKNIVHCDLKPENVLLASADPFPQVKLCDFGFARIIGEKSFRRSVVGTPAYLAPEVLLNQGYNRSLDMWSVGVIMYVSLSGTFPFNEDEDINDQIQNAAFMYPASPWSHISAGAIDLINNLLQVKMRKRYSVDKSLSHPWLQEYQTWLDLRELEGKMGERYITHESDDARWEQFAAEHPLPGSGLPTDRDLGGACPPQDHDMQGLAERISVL
# Description: as §1, §2, §3, §4, §5, §6
# [8] = target: AURKB (Aurora B) (Homo sapiens, UniProt Q96GD4)
# AURKB (Aurora B), sequence (Q96GD4 whole entry): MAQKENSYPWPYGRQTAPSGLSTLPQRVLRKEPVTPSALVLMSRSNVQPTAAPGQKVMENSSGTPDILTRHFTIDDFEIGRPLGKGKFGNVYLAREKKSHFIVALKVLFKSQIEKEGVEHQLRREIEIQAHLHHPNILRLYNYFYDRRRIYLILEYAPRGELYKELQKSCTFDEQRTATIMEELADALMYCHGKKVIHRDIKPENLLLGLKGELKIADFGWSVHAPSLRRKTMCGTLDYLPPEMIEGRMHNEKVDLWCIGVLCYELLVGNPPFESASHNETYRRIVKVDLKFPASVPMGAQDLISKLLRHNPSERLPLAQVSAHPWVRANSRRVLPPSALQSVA
# Description: as §1, §2, §3, §4, §5, §6
# [9] = target: T4, ACVR1B (ALK4) (Homo sapiens, UniProt P36896)
# T4 sequence (P36896 24-505): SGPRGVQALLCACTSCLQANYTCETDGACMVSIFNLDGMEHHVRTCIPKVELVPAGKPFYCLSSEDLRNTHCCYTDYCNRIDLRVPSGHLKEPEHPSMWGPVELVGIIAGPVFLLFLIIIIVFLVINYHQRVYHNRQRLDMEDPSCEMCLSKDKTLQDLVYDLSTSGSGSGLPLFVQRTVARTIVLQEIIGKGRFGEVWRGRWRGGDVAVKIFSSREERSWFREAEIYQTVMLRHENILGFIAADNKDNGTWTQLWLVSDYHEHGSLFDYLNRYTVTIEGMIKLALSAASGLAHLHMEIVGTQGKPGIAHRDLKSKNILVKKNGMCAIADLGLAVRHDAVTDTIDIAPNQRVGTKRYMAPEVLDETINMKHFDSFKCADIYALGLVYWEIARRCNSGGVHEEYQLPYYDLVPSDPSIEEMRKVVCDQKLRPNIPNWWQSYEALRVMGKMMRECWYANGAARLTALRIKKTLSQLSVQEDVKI
# Description: as §1, §2, §3, §4, §5, §6
# [10] = target: EPHA2 (Homo sapiens, UniProt P29317)
# EPHA2, sequence (P29317 24-976): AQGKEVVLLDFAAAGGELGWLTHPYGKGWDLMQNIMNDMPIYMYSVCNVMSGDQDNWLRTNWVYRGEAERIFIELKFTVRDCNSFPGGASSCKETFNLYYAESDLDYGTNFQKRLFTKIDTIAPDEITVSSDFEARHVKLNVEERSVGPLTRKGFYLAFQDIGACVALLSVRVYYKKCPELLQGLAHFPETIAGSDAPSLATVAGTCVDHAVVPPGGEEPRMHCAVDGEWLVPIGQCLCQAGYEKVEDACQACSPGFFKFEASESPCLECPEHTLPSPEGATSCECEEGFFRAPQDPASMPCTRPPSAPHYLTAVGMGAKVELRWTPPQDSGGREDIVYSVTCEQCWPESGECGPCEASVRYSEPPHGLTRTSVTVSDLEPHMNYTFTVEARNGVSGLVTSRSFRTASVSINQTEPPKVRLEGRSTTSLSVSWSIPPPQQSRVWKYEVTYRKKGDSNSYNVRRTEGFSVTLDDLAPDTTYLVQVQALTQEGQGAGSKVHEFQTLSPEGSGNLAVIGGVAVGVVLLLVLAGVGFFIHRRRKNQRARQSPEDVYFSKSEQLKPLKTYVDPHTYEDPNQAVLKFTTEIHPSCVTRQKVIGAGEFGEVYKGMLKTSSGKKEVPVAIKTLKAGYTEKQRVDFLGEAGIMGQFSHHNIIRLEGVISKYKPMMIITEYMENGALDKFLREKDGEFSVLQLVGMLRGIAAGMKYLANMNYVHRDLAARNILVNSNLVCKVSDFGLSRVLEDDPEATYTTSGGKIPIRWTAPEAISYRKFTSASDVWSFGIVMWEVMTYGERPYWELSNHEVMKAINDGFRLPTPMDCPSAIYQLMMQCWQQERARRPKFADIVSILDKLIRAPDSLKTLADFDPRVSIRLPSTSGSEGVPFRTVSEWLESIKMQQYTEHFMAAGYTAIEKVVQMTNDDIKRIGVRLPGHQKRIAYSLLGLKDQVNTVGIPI
# Description: as §1, §2, §3, §4, §5, §6
# AMPK A2/B1/G1, sequence (P54646 whole entry): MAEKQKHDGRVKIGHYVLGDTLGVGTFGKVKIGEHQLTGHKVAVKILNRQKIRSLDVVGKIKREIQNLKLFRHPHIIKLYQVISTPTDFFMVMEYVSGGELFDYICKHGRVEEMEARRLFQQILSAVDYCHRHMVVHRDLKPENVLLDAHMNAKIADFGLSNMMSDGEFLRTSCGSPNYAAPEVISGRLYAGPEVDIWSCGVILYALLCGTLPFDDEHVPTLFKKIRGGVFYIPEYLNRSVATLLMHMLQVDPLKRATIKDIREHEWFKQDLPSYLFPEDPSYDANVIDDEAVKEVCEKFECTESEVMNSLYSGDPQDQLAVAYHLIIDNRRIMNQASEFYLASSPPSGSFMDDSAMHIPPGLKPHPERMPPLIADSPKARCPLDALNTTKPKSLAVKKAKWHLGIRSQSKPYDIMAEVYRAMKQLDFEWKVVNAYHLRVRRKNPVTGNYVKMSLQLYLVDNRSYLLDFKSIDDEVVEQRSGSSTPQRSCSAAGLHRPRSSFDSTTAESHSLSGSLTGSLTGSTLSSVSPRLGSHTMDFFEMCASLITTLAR
# AMPK A2/B1/G1, sequence (Q9Y478 whole entry partner): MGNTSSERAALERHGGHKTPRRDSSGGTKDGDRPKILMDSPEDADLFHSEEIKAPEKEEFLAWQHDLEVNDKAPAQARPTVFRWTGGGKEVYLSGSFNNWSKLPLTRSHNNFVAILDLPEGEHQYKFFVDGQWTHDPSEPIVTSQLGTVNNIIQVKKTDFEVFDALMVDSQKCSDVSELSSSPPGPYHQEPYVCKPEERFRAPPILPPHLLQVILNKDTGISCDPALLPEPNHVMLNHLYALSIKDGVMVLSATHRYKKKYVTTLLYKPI
# AMPK A2/B1/G1, sequence (P54619 whole entry partner): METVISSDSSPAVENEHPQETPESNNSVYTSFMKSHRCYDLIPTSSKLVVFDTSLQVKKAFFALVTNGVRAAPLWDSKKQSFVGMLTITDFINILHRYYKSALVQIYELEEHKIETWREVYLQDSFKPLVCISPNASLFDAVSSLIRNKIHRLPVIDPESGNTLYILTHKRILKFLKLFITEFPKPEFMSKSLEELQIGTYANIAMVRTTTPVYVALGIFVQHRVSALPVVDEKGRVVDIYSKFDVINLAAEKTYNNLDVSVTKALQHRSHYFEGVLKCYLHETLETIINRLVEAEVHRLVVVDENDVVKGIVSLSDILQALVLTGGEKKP
SMILES,inhibition at 1 µM [1],inhibition at 1 µM [2],inhibition at 1 µM [3],inhibition at 1 µM [4],inhibition at 1 µM [5],inhibition at 1 µM [6],inhibition at 1 µM [7],inhibition at 1 µM [8],inhibition at 1 µM [9],inhibition at 1 µM [10]
C=CC(=O)Nc1ccc2c(c1)n(C1CCN(Cc3ccc(-c4nc5cc[nH]c(=O)c5cc4-c4ccccc4)cc3)CC1)c(=O)n2C [24b],20%,19%,8%,7%,7%,4%,3%,0%,-1%,-6%
C=CC(=O)Nc1cccc(C(=O)NC2CCN(Cc3ccc(-c4nc5cc[nH]c(=O)c5cc4-c4ccccc4)cc3)CC2)c1 [30b],40%,29%,1%,14%,13%,5%,4%,2%,0%,4%
C=CC(=O)Nc1cc(NC(=O)NC2CCN(Cc3ccc(-c4nc5cc[nH]c(=O)c5cc4-c4ccccc4)cc3)CC2)ccc1Cl [compound 27],77%,21%,-2%,21%,11%,3%,5%,2%,-8%,-3%
